ChEMBL document CHEMBL3596146, “Design, synthesis, and biological evaluation of a series of alkoxy-3-indolylacetic acids as peroxisome proliferator-activated receptor γ/δ agonists” (Bioorg Med Chem, 2015)
The source made the active and inactive calls. The calls are words filed in the database; no cut-off is given here.

What was measured:
[1] = biological target: T1, Peroxisome proliferator-activated receptor alpha (Homo sapiens) (UniProt Q07869); assay: Agonist activity at PPAR-alpha (unknown origin) expressed in CV-1 cells co-transfected with tk-PPRE-luciferase vector at 10 uM after 24 hrs by transactivation assay relative to GW7647; type: cell-based
T1 sequence (whole entry): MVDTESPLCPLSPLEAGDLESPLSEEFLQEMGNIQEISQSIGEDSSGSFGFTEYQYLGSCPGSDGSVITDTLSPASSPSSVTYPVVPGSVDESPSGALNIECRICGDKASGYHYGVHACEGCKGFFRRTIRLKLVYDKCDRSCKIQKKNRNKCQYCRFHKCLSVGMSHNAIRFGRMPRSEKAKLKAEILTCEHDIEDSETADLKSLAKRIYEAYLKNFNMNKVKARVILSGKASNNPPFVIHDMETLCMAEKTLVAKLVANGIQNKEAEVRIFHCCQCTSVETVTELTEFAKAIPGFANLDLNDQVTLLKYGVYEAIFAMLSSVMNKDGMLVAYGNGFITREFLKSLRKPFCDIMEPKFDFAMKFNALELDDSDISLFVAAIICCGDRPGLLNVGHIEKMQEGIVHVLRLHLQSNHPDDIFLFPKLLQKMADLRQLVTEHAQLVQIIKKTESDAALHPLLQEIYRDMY

[2] = biological target: T2, Peroxisome proliferator-activated receptor gamma (Homo sapiens) (UniProt P37231); assay: Agonist activity at PPAR-gamma (unknown origin) expressed in CV-1 cells co-transfected with tk-PPRE-luciferase vector at 10 uM after 24 hrs by transactivation assay relative to rosiglitazone; type: cell-based
T2 sequence (whole entry): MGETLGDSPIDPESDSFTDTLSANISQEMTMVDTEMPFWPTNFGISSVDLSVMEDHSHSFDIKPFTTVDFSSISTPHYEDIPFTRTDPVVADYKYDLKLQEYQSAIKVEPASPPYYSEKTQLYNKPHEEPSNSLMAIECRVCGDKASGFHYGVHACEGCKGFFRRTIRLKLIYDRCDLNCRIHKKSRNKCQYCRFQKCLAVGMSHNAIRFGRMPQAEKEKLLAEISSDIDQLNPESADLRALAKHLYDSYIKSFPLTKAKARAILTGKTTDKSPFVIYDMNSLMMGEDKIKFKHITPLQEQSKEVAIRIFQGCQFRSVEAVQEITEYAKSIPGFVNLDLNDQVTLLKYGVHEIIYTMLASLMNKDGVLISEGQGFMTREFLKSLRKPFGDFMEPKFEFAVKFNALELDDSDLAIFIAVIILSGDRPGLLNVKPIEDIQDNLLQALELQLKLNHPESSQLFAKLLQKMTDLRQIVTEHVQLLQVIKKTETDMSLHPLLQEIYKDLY

[3] = biological target: T3, Peroxisome proliferator-activated receptor delta (Homo sapiens) (UniProt Q03181); assay: Agonist activity at PPAR-delta (unknown origin) expressed in HEK293t cells co-transfected with tk-PPRE-luciferase vector at 10 uM after 24 hrs by transactivation assay relative to GW0742; type: cell-based; details: HEK-293T
T3 sequence (whole entry): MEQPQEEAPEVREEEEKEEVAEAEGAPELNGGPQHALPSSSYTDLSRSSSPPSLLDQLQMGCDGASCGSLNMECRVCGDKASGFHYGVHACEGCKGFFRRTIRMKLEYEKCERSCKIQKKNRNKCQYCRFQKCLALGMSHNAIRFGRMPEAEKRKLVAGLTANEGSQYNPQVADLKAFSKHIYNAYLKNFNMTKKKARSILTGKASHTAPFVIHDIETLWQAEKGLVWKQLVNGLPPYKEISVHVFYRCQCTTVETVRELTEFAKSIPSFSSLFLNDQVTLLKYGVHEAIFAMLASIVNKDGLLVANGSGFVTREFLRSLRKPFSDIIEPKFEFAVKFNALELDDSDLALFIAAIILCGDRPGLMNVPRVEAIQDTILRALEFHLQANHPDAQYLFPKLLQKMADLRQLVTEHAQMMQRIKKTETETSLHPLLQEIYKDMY

[4] = biological target: T4, Peroxisome proliferator-activated receptor alpha (Homo sapiens, UniProt Q07869); assay: Agonist activity at PPAR-alpha (unknown origin) expressed in CV-1 cells co-transfected with tk-PPRE-luciferase vector after 24 hrs by transactivation assay; type: cell-based
T4 sequence (Q07869 whole entry): T1 sequence (whole entry)

[5] = biological target: T5, Peroxisome proliferator-activated receptor gamma (Homo sapiens, UniProt P37231); assay: Agonist activity at PPAR-gamma (unknown origin) expressed in CV-1 cells co-transfected with tk-PPRE-luciferase vector after 24 hrs by transactivation assay; type: cell-based
T5 sequence (P37231 whole entry): T2 sequence (whole entry)

[6] = biological target: T6, Peroxisome proliferator-activated receptor delta (Homo sapiens, UniProt Q03181); assay: Agonist activity at PPAR-delta (unknown origin) expressed in HEK293t cells co-transfected with tk-PPRE-luciferase vector after 24 hrs by transactivation assay; type: cell-based, HEK-293T
T6 sequence (Q03181 whole entry): T3 sequence (whole entry)

Liver microsome [7] = assay: Metabolic stability in human liver microsomes at 1 uM after 30 mins measured under phase 1 reaction by LC/MS/MS analysis; type: ADME; details: 0.5 h
[8] = Metabolic stability in mouse liver microsomes at 1 uM after 30 mins measured under phase 1 reaction by LC/MS/MS analysis; type: ADME; details: 0.5 h
Liver microsome [9] = assay: Metabolic stability in human liver microsomes at 1 uM after 30 mins measured under phase 2 reaction by LC/MS/MS analysis; type: ADME; details: 0.5 h
[10] = Metabolic stability in mouse liver microsomes at 1 uM after 30 mins measured under phase 2 reaction by LC/MS/MS analysis; type: ADME; details: 0.5 h
[11] = Retention time of the compound by HPLC analysis; type: physicochemical
Mus musculus [12] = assay: Effect on body weight in C57BLKS/J-Lepr/Lepr db/db mouse at 3 to 10 mg/kg, po qd for 18 days administered via gavage; type: ADME, organism-based; details: in vivo, 432 h
Mus musculus [13] = assay: Decrease in fasting blood glucose level in C57BLKS/J-Lepr/Lepr db/db mouse at 3 to 10 mg/kg, po qd for 18 days administered via gavage by ELISA; type: functional, organism-based
Mus musculus [14] = assay: Decrease in serum insulin level in C57BLKS/J-Lepr/Lepr db/db mouse at 3 to 10 mg/kg, po qd for 18 days administered via gavage by ELISA; type: functional, organism-based
Mus musculus [15] = assay: Decrease in serum Hb1Ac level in C57BLKS/J-Lepr/Lepr db/db mouse at 3 to 10 mg/kg, po qd for 18 days administered via gavage by ELISA; type: functional, organism-based
Mus musculus [16] = assay: Decrease in triglyceride content in C57BLKS/J-Lepr/Lepr db/db mouse liver at 3 mg/kg, po administered via gavage by hematoxylin-eosin staining; type: functional
Mus musculus [17] = assay: Decrease in size of adipocytes in C57BLKS/J-Lepr/Lepr db/db mouse white adipose tissue at 10 mg/kg, po administered via gavage by hematoxylin-eosin staining relative to untreated control; type: functional
Mus musculus [18] = assay: Decrease in size of adipocytes in C57BLKS/J-Lepr/Lepr db/db mouse white adipose tissue at 10 mg/kg, po administered via gavage by hematoxylin-eosin staining relative to rosiglitazone-treated control; type: functional
Mus musculus [19] = assay: Increase in body weight in C57BLKS/J-Lepr/Lepr db/db mouse at 10 mg/kg, po qd for 18 days administered via gavage measured on day 16 relative to untreated control; type: ADME, organism-based; details: in vivo, 432 h
Mus musculus [20] = assay: Decrease in fasting blood glucose level in C57BLKS/J-Lepr/Lepr db/db mouse at 10 mg/kg, po qd for 18 days administered via gavage by ELISA; type: functional, organism-based
Mus musculus [21] = assay: Decrease in serum insulin level in C57BLKS/J-Lepr/Lepr db/db mouse at 10 mg/kg, po qd for 18 days administered via gavage by ELISA; type: functional, organism-based
Mus musculus [22] = assay: Decrease in serum Hb1Ac level in C57BLKS/J-Lepr/Lepr db/db mouse at 10 mg/kg, po qd for 18 days administered via gavage by ELISA; type: functional, organism-based
Mus musculus [23] = assay: Increase in triglyceride content in C57BLKS/J-Lepr/Lepr db/db mouse liver at 10 mg/kg, po administered via gavage by hematoxylin-eosin staining; type: functional

Row | Structure (SMILES) | Emax [1] [%] | Emax [2] [%] | Emax [3] [%] | EC50 [6] [µM] | Retention_time [11] [min] | further results
1 | Cc1ccc(COc2cccc(OCCCOc3ccc4c(CC(=O)O)cn(Cc5ccccc5)c4c3)c2)cc1 | 26.5 | 130 | 90.2 | 9.4 | 18.125 | EC50 [4]: 19.2 µM; EC50 [5]: 1.3 µM; Stability (Liver microsome [7]): Stable; Stability [8]: Stable; Stability (Liver microsome [9]): Stable; Stability [10]: Stable
2 | COc1ccc(COc2cccc(OCCOc3ccc4c(c3)c(CC(=O)O)cn4Cc3ccccc3)c2)cc1 | 25.8 | 90.9 | 122 | 6.3 | 10.127 | EC50 [4]: 5.9 µM; EC50 [5]: 1.9 µM; Stability (Liver microsome [7]): Unstable; Stability [8]: Stable
3 | O=C(O)Cc1cn(Cc2ccccc2)c2ccc(OCCCOc3cccc(OCc4ccc(Cl)cc4)c3)cc12 | 31.2 | 100 | 82 | 2.2 | 24.111 | EC50 [4]: 8.6 µM; EC50 [5]: 0.5 µM; Stability (Liver microsome [7]): Stable; Stability [8]: Stable; Stability (Liver microsome [9]): Stable; Stability [10]: Stable; Activity (Mus musculus [12]): Non-toxic; inhibition (Mus musculus [13]): Active; inhibition (Mus musculus [14]): Active; inhibition (Mus musculus [15]): Active; inhibition in vivo at 3 mg/kg (Mus musculus [16]): 24%; inhibition in vivo at 10 mg/kg (Mus musculus [17]): 18%; inhibition in vivo at 10 mg/kg (Mus musculus [18]): 36%
4 | CN(CCOc1ccc(CC2SC(=O)NC2=O)cc1)c1ccccn1 (stereo not drawn) [ROSIGLITAZONE] | – | – | – | – | – | increase (Mus musculus [19]): 10%; inhibition (Mus musculus [20]): Active; inhibition (Mus musculus [21]): Active; inhibition (Mus musculus [22]): Active; Activity (Mus musculus [23]): 22%
5 | O=C(O)Cc1cn(Cc2ccc(F)cc2)c2ccc(OCCCOc3cccc(OCc4ccc(Cl)cc4)c3)cc12 | 34.3 | 92.7 | 133 | 0.75 | 23.205 | –
6 | Cc1ccc(COc2cccc(OCCCOc3ccc4[nH]cc(CC(=O)O)c4c3)c2)cc1 | 69.3 | 134 | 84.1 | 7.2 | 8.984 | EC50 [4]: 13.8 µM; EC50 [5]: 1.7 µM; Stability (Liver microsome [7]): Stable; Stability [8]: Stable
7 | O=C(O)Cc1c[nH]c2cc(OCCCOc3cccc(OCc4ccc(Cl)cc4)c3)ccc12 | 33 | 81.8 | 32.8 | – | 8.836 | –
8 | Cc1ccc(COc2ccc(OCCCOc3ccc4[nH]cc(CC(=O)O)c4c3)cc2)cc1 | 41.2 | 91.7 | 53.3 | – | 7.89 | –
9 | Cc1ccc(Oc2cccc(OCCCOc3ccc4c(c3)c(CC(=O)O)cn4Cc3ccccc3)c2)cc1 | 33.3 | 119 | 69.1 | – | 23.472 | –
10 | O=C(O)Cc1c[nH]c2ccc(OCCCOc3cccc(OCc4ccc(F)cc4)c3)cc12 | 25.8 | 66.9 | 32 | – | 7.106 | –
11 | O=C(O)Cc1cn(Cc2ccccc2)c2cc(OCCCOc3cccc(OCc4ccc(Cl)cc4)c3)ccc12 | 34.8 | 122 | 84.8 | – | 18.802 | –
12 | O=C(O)Cc1c[nH]c2ccc(OCCCOc3cccc(Oc4ccc(C(F)(F)F)cc4)c3)cc12 | 61.1 | 119 | 43.2 | – | 9.685 | –
13 | Cc1cccc(OCCOc2ccc3[nH]cc(CC(=O)O)c3c2)c1 | 21.8 | 31.3 | 27.9 | – | 4.444 | –
14 | O=C(O)Cc1cn(Cc2ccccc2)c2ccc(OCCCOc3cccc(Oc4ccc(Cl)cc4)c3)cc12 | 34 | 99.8 | 88.8 | – | 25.456 | –
15 | Cc1ccc(COc2cccc(OCCCOc3ccc4c(CC(=O)O)c[nH]c4c3)c2)cc1 | 23.4 | 84.3 | 37.2 | – | 9.005 | –
